Our source for the inhibition and IC50 values is US9518055B2, “Imidazopyridyl compounds as aldosterone synthase inhibitors” (Merck Sharp & Dohme Corp., priority 2011, dated 2016).

For one test, the target named is human CYP11B1 (Homo sapiens (Human), UniProt P15538). Put plainly: V79-Human-CYP11B1 cell assay. The class given is cell-based. Conditions: for inhibition at 10 µM: starred values of the CYP11B1 column; for IC50: V79 cells stably expressing human CYP11B1, 250 nM 11-deoxycortisol substrate, cortisol measured by HTRF. As for the experimental part: (§1) Methods for V79-Human-CYP11B2 and V79-Human-CYP11B1 Assays:
(§2) V79 cell lines stably expressing the either the human CYP11B2 or the human CYP11B1 enzyme were generated using a standard transfection protocol. V79 cells were transfected with plasmids pTriEx3-Hygro-hCyp11B2 or pTriEx3-Hygro-hCyp11B1 using Lipofectamine2000 reagent. V79 cells that stably express the human CYP11B2 or human CYP11B1 enzyme were selected for and maintained in DMEM supplemented with 10% FBS and 400 μg/mL hygromycin for ˜2 weeks. Single cell clones were generated by […] in DMEM supplemented with 10% FBS and 400 μg/mL hygromycin until single colonies were obtained. […] For testing of inhibitors, cells were harvested at 80% confluency with 0.5% Trypsan-EDTA, washed once in PBS, and reconstituted in DMEM+0.1% BSA media at a cell concentration of 600,000 cells/mL for the CYP11B2 assay and 280,000 cells/mL for the CYP11B1 assay. 25 μL of cells were added to a 384 well tissue culture treated plate and mixed with 0.3 μL of inhibitor or DMSO (1% final DMSO concentration) for 1 hour at 37° C., 5% CO2. […] The reaction was carried out for 3 hours at 37° C., 5% CO2 and was stopped by harvesting the supernatants. The amount of product in the supernatant (aldosterone for CYP11B2 assay and cortisol for the CYP11B1 assay) was measured using HTRF-based assay kit (Aldosterone HTRF-CisBio#64ALDPEB, Cortisol HTRF-CisBio #63IDC002-CORT). IC50s for the inhibitor were determined by plotting the amount of product formed against the concentration of inhibitor using sigmoidal dose-response curve (variable slope) fit in GraphPad.
In general terms: In TR-FRET formats the signal depends on donor and acceptor labels being close together.

The next test deals with human CYP11B2 (Homo sapiens (Human), UniProt P19099). Put plainly: V79-Human-CYP11B2 cell assay. Conditions: V79 cells stably expressing human CYP11B2; 125 nM 11-deoxycorticosterone substrate; aldosterone measured by HTRF. The class given is cell-based. As to the method: as §1, §2
Sequence of human CYP11B2 (P19099 25-503): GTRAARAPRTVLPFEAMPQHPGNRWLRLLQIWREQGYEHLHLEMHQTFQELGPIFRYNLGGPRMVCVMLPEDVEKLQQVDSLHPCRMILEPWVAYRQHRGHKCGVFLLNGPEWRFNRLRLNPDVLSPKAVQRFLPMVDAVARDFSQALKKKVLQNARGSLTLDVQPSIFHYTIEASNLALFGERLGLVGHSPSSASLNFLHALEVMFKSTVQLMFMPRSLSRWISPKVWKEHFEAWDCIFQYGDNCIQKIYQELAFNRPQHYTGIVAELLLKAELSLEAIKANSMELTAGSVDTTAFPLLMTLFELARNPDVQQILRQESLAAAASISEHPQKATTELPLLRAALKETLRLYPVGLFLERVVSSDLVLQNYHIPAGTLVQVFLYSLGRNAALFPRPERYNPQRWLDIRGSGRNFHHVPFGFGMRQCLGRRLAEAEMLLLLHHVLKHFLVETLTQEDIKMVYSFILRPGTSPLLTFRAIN

Sequence of human CYP11B1 (P15538 25-503): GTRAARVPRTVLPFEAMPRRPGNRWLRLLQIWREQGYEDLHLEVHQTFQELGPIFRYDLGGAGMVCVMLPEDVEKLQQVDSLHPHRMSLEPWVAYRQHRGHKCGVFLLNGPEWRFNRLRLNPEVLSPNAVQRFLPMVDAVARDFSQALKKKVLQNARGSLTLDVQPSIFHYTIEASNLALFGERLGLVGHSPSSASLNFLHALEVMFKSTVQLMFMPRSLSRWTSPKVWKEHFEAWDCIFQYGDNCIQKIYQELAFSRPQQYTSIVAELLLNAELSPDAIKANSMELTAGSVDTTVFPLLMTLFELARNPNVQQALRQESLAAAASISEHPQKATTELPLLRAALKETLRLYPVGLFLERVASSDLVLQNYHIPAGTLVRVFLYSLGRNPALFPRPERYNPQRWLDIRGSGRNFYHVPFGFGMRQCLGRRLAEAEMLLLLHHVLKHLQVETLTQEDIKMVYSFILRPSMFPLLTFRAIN

As usually defined, the inhibition is the share of the control response that was lost under treatment. As usually defined, the IC50 is the concentration at which inhibition is half-maximal. Low readings indicate inhibition by little substance, high ones a need for much substance. `Cc1ccncc1-c1cn2cc(F)ccc2n1` [Example 6, 6-fluoro-2-(4-methylpyridin-3-yl)imidazo[1,2-a]pyridine]: testing at 10 µM against human CYP11B1 gave an inhibition of 63%. The molecule further yielded an IC50 against human CYP11B2 of 22.4 nM.

Molecule `Cc1cncc(-c2cn3cc(F)ccc3n2)c1` [Example 7, 6-fluoro-2-(5-methylpyridin-3-yl)imidazo[1,2-a]pyridine] had an inhibition at 10 µM against human CYP11B1 of 60%. For the same molecule, the half-maximal inhibitory concentration (IC50) on human CYP11B2 is 56.2 nM.

`COc1cncc(-c2nc3ccc(F)cn3c2C)c1` [Example 18, 6-fluoro-3-methyl-2-(5-methoxypyridin-3-yl)imidazo[1,2-a]pyridine]: the results for the 50% inhibitory concentration (IC50) on human CYP11B1 and against human CYP11B2 were 32.4 nM and 0.3 nM, respectively.

Turning to `Cc1cncc(-c2nc3ccc(F)cn3c2C)c1` [Example 19, 6-fluoro-3-methyl-2-(5-methylpyridin-3-yl)imidazo[1,2-a]pyridine], the results for the IC50 against human CYP11B1 and at human CYP11B2 were 40.7 nM and 0.45 nM, respectively.

For the molecule `Cc1ccncc1-c1nc2ccc(F)cn2c1C` [Example 20, 6-fluoro-3-methyl-2-(4-methylpyridin-3-yl)imidazo[1,2-a]pyridine], the half-maximal inhibitory concentration (IC50) at human CYP11B1 turned out to be 135 nM; at human CYP11B2, 2.2 nM.

`Cc1c(-c2cncc3ccccc23)nc2ccc(F)cn12` [Example 25]: the IC50 against human CYP11B1 turned out to be 14.8 nM; at human CYP11B2, 0.1 nM.

As to `Cc1c(-c2cncc(F)c2)nc2cc(F)ccn12` [Example 26, 7-fluoro-2-(5-fluoropyridin-3-yl)-3-methylimidazo[1,2-a]pyridine], the IC50 against human CYP11B1 turned out to be 912 nM; at human CYP11B2 it was 4.7 nM.
